In the NIST ThermoML archive (doi:10.1021/je060348v):
± gives the expanded uncertainty stated by the source.

Settings: Crystal; visual observation

Normal melting temperature: 94.50 ± 1 °C
Structure (SMILES): OC[C@@H](O)[C@H](O)[C@@H](O)CO [xylitol]
